Laboratory results taken from PubChem BioAssay (NCI).
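The compound was tested at five concentrations on cells cultured in 96-well plates, with a 48-hour exposure period. The concentration for 50% growth inhibition is given as GI50. The concentration for full growth arrest is given as TGI.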

Legend:
Test in all cases: NCI tumour cell line growth inhibition, 48 h
MDA-N = system: MDA-N
A549 NSCLC = system: A549 NSCLC
SNB-75 CNS = system: SNB-75 CNS
MOLT-4 leukemia = system: MOLT-4 leukemia
IGROV1 ovarian = system: IGROV1 ovarian
HCT-116 colon = system: HCT-116 colon
CCRF-CEM leukemia = system: CCRF-CEM leukemia
NCI-H522 lung = system: NCI-H522 lung
NCI-H226 lung = system: NCI-H226 lung
SNB-19 CNS = system: SNB-19 CNS
OVCAR-5 ovarian = system: OVCAR-5 ovarian
LOX IMVI melanoma = system: LOX IMVI melanoma
MCF7 breast = system: MCF7 breast
BT-549 breast = system: BT-549 breast
SF-268 CNS = system: SF-268 CNS
SK-OV-3 ovarian = system: SK-OV-3 ovarian
M14 melanoma = system: M14 melanoma

## Cc1cccc(C(O)c2cccnc2)c1O (configuration not stated)
MDA-N
  TGI: > 100 µM
A549 NSCLC
  TGI: > 100 µM
SNB-75 CNS
  TGI: > 100 µM
MOLT-4 leukemia
  TGI: > 100 µM
IGROV1 ovarian
  TGI: > 100 µM
HCT-116 colon
  TGI: > 100 µM
CCRF-CEM leukemia
  TGI: > 100 µM
NCI-H522 lung
  TGI: > 100 µM
NCI-H226 lung
  TGI: > 100 µM
SNB-19 CNS
  TGI: > 100 µM
OVCAR-5 ovarian
  TGI: > 100 µM
LOX IMVI melanoma
  TGI: > 100 µM
MCF7 breast
  TGI: > 100 µM
BT-549 breast
  TGI: > 100 µM
SF-268 CNS
  TGI: > 100 µM

## c1cc2ccc1CNCCN1CCNCc3ccc(cc3)Oc3ccc(cc3)CNCCN(CCNCc3ccc(cc3)O2)CCNCc2ccc(cc2)Oc2ccc(cc2)CNCC1
SK-OV-3 ovarian
  GI50: 1.72 µM
  TGI: 3.15 µM
M14 melanoma
  GI50: 1.7 µM
  TGI: 3.38 µM
MCF7 breast
  GI50: 0.581 µM
  TGI: 2.1 µM

## COC(=O)[C@@H]1O[C@]12[C@@H](CO[Si](C)(C)C(C)(C)C)O[C@@H](n1cc(C)c(=O)[nH]c1=O)[C@@H]2O[Si](C)(C)C(C)(C)C
MDA-N
  TGI: 27.6 µM
A549 NSCLC
  TGI: 64 µM
SNB-75 CNS
  TGI: > 100 µM
MOLT-4 leukemia
  TGI: 7.42 µM
IGROV1 ovarian
  TGI: 21.6 µM
SK-OV-3 ovarian
  TGI: > 100 µM
HCT-116 colon
  TGI: 29.9 µM
CCRF-CEM leukemia
  TGI: 4.79 µM
NCI-H522 lung
  TGI: 30.1 µM
NCI-H226 lung
  TGI: 45.5 µM
SNB-19 CNS
  TGI: 26 µM
OVCAR-5 ovarian
  TGI: 36.6 µM
M14 melanoma
  TGI: 35.9 µM
LOX IMVI melanoma
  TGI: 10.2 µM
BT-549 breast
  TGI: 32.6 µM
SF-268 CNS
  TGI: 38 µM
